Measurements taken from article PMC5896266, “Development of Matrix Metalloproteinase-2 Inhibitors for Cardioprotection” (Frontiers in Pharmacology, 2018).

Test system: neonatal rat cardiac myocytes
Experiment: Cell viability of neonatal rat cardiac myocytes subjected to simulated ischemia/reperfusion
Assay type: cell-based
Settings: comparison among the tested lead candidates
Protocol: For our cell viability experiments, 3 day-old cardiomyocytes plated onto 24-well plates were tested under normoxic condition or subjected to simulated ischemia (SI). The normoxic cardiomyocytes were kept under normoxic conditions, i.e., the growth medium was changed to a normoxic solution (in mM: NaCl 125, KCl 5.4, NaH2PO4 1.2, MgCl2 0.5, HEPES 20, glucose 15, taurine 5, CaCl2 1, creatine 2.5, BSA 0.1%, pH 7.4, 310 mOsm/l) (Li et al., [2004]) and the cells were incubated under 95% air and 5% CO2 at 37°C for 2.5 h. […] The cells were then subjected to the following treatments during SI or normoxic protocol: vehicle control or MMP inhibitors at different doses calculated according to IC doses in vitro. […]
Figure 3 Experimental protocol for cell culture studies and for the ex vivo rat heart model of AMI. […] At the end of the reperfusion, cell viability was determined by using calcein flurescence. […] Subsequently, 2 h reperfusion was applied and then infarct size was determined. […]
Cell viability was assessed by a calcein and propidium iodine assay performed in each group after 2 h reoxygenation. […] Then the calcein solution was replaced with fresh PBS and the fluorescence intensity of each well was detected by a fluorescent plate reader (FluoStar Optima, BMG Labtech, Ortenberg, Germany). […]

O=C(O)c1c[nH]c(CN(Cc2ccc(F)cc2)Cc2ccc(OCc3ccccc3)cc2)n1 [MMPI-1154]
increase in cell viability during simulated I/R: highest increase in cell viability
